In US5641779A, “Selective ligands of 5-HT1D -5-HT1B receptors derived from indolepiperazine which are useful medicaments” (Pierre Fabre Medicament, priority 1992, dated 1997):
Where a name gives a salt, the structure may show the parent alone. Read-outs that look alike come from different tables or passages of the source.

What was measured:
5-HT1D = experiment: Affinity for 5-HT1D receptors (3H-5-HT binding, sheep caudate nuclei membranes); details: Ratio of the IC50 values for the 5HT1A and 5HT1D receptors
Experimental: This study is carried out according to the technique described by Herrick-Davis and Titeler (J. Neurochem. 50, 1624-1631, 1988).
Preparation of the membranes:
Sheep brains are removed at the local abattoir and transported in ice. The caudate nuclei are removed, weighed and homogenized with a Polytron for 20 sec. (speed 6-7) in 20 volumes of Tris-HCl 50 mM, pH 7.7. The homogenate is centrifuged for 10 min at 48,000 g with an L5 50E centrifuge (Beckman).
The pellet, taken up in 20 volumes of Tris-HCl 50 mM, pH 7.7, is placed in a water bath at 37° C. for 10 min and then recentrifuged for 10 min at 48,000 g. The pellet then obtained is immediately frozen in fractions containing 0.5 g of tissue.
The pellet is defrosted and homogenized with a Dounce in 80 volumes of Tris-HCl, 50 mM pH 7.7 containing 4 mM CaCl2, 10μM of pargyline and 0.1% of ascorbic acid.
Binding is carried out at 25° C. by incubating for 30 min:
0.1 ml of buffer or 10 μM, as final concentration, of sumatriptan, in order to obtain the non-specific binding, or the product which forms part of this invention at various concentrations (between 10^-10 and 10^-6 M).
0.8 ml of membrane suspension
0.1 ml of ^3 H-5-HT (15 to 30 Ci/mM, New England Nuclear France)
The incubation is brought to an end by rapid filtration through GF/B filters and rinsing with 3 times 3 ml of ice-cold buffer, using a harvester manufactured by Brandel which makes it possible to filter 48 samples. The filters are introduced into vials containing 4 ml of emulsifier-safe liquid scintillant (Packard) and the radioactivity measured with a Tri-carb 4640 counter (Packard).
The IC50 (concentration which inhibits the specific affinity by 50%) is determined graphically.

5-HT1A = target: T1, 5-HT1A (Rattus norvegicus, UniProt P19327); experiment: 5-HT1A receptor binding (Peroutka); details: rat frontal cortex (title of cited method); mean; read-out: IC50 5-HT1A mean
T1 construct: from tissue; host or cells: rat frontal cortex
T1 sequence (P19327 1-422): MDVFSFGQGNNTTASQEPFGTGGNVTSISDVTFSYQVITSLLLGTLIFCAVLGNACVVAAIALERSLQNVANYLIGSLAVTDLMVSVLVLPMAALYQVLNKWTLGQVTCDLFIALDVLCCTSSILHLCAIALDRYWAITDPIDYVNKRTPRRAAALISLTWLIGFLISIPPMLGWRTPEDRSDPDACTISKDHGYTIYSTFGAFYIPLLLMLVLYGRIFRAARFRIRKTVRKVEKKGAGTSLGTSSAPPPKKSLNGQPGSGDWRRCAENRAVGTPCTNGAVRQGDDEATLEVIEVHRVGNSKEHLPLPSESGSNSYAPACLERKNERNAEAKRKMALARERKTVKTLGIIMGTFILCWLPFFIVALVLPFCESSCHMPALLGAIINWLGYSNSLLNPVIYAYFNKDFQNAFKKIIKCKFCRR
Experimental: (§1) The IC50 values of the various products which form part of this invention for the other receptors were measured according to the techniques described in the following references:
(§2) Peroutka S. J. Pharmacological differentiation and characterization of 5-HT1A, 5-HT1B and 5-HT1C binding sites in rat frontal cortex. J. Neurochem., 45, 529-540, 1986.

5-HT1B = target: T2, 5-HT1B (Rattus norvegicus, UniProt P28564); experiment: 5-HT1B receptor binding (Peroutka)
T2 construct: from tissue; host or cells: rat frontal cortex
T2 sequence (P28564 whole entry): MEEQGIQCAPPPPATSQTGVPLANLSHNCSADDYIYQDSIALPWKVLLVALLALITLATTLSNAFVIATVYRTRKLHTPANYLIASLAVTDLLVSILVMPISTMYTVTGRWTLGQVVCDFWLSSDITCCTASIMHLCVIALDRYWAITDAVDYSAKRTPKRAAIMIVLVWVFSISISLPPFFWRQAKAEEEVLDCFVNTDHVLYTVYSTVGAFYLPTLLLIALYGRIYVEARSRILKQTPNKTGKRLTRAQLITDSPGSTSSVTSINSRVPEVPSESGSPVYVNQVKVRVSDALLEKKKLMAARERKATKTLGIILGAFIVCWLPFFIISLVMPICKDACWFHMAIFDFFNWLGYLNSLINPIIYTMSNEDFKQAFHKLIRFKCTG
Experimental: as §1, §2

5-HT1C = target: T3, 5-HT1C (Sus scrofa, UniProt K7GSR7); experiment: 5-HT1C receptor binding (Pazos et al.); design: species or system porcine
T3 construct: serotonergic ligands to the porcine choroid plexus; from tissue; host or cells: porcine choroid plexus
T3 sequence (K7GSR7 1-457): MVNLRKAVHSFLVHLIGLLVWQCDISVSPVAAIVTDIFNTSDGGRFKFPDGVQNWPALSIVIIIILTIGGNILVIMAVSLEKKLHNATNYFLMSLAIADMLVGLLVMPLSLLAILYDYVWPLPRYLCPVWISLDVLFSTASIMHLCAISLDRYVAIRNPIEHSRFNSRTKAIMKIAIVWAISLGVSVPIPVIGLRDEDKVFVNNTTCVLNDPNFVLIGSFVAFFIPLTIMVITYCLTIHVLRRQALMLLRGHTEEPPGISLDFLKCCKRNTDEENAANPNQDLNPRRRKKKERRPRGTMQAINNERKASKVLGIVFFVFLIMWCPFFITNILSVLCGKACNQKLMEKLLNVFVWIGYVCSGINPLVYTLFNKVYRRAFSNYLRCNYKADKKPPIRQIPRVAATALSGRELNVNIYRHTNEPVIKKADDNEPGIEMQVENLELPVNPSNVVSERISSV
Experimental: as §1
Pazos A., Hoyer D. and Palacios J. M. The binding sites of serotonergic ligands to the porcine choroid plexus: characterization of a new type of serotonin recognition site. Eur. J. Pharmacol., 106, 539-546, 1985.

5-HT2 = target: T4, 5-HT2 (Rattus norvegicus, UniProt P14842); experiment: 5-HT2 receptor binding (Leysen et al.); details: 3H-ketanserine (title of cited method)
T4 construct: from tissue
T4 sequence (P14842 whole entry): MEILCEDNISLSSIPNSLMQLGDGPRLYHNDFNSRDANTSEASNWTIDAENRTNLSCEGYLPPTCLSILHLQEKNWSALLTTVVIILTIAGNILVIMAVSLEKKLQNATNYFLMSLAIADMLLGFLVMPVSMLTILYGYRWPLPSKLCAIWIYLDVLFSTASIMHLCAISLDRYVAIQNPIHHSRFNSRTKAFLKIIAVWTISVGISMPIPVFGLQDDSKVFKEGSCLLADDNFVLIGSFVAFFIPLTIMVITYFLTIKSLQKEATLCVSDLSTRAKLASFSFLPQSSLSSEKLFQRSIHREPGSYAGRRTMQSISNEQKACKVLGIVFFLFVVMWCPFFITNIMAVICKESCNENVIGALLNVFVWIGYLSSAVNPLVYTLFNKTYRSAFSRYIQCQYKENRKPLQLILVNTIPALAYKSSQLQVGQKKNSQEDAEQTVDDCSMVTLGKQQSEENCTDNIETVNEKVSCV
Experimental: as §1
Leysen J. E., Niemegeers C. J. E., Van Nueten J. M. and Laduron P.M. ^3 H-ketanserine (R 41468), a selective ^3 H ligand for serotonin2 receptor binding sites. Mol. Pharmacol., 21, 301-330, 1982.

α2-Adrenergic receptor = target: T5, α2-Adrenergic receptor (Rattus norvegicus, UniProt P22909); experiment: α2-Adrenergic receptor binding (Mallard et al.); details: rat brain (title of cited method); read-out: IC50 α2
T5 construct: in the rat brain; from tissue; host or cells: rat brain
T5 sequence (P22909 1-465): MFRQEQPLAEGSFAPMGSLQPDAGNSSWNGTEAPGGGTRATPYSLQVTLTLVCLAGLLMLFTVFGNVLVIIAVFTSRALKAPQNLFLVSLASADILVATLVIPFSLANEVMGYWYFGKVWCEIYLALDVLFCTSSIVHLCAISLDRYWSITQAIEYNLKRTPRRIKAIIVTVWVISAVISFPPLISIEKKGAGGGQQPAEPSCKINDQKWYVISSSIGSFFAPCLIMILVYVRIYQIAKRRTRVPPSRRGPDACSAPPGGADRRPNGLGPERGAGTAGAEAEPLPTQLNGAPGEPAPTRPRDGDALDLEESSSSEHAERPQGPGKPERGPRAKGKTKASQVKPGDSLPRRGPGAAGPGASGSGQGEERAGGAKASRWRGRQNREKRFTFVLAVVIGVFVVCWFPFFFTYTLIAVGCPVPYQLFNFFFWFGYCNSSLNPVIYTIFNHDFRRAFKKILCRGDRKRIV
Experimental: as §1
Mallard N. J., Tyacke R., Hudson A. L. and Nutt D. S. Comparative binding studies of ^3 -idazoxan and ^3 -RX821002 in the rat brain. Brit. J. Pharmacol. 102, 221P, 1991.

α1-Adrenergic receptor = α1-Adrenergic receptor binding (Leslie Morrow and Creese); details: rat brain (title of cited method)
Experimental: as §1
Leslie Morrow A. and Creese I. Characterization of α1-adrenergic receptor subtypes in rat brain: a reevaluation of ^3 H-WB4101 and ^3 H prazosin binding. Mol. Pharmacol. 29, 321-330, 1986.

D2-Dopaminergic receptor = target: T6, D2-Dopaminergic receptor (Canis lupus familiaris, UniProt Q9GJU1); experiment: D2-Dopaminergic receptor binding (Nisnik et al.); details: 3H-YM-09159-2 (title of cited method); read-out: IC50 D2
T6 construct: from tissue
T6 sequence (Q9GJU1 whole entry): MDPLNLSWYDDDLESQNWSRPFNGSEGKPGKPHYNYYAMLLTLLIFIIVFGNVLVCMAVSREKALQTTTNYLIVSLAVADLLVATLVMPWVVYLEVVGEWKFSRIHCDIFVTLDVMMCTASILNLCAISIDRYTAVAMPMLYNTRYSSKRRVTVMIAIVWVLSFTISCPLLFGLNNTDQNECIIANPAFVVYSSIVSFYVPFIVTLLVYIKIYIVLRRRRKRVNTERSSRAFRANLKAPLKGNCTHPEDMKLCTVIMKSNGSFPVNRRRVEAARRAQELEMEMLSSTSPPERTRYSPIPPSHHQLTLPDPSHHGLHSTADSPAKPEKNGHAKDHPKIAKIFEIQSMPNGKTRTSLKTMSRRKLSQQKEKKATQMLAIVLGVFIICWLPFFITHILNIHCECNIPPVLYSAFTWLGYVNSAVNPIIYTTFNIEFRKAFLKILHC
Experimental: as §1
Nisnik H. B., Grigoriadis D. E., Pri-Bar I., Buckman O. and Seeman P. Dopamine D2 receptors selectively labeled by a benzamide neuroleptic: ^3 H-YM-09159-2 Naunyn-Schmiedeberg's Arch. Pharmacol. 329, 333-343, 1985.

[1] = rat frontal cortex (title of cited method), mean, read-out: IC50 5-HT1B mean
[2] = porcine choroid plexus (title of cited method), read-out: IC50 5-HT1C

`COc1cccc(N2CCN(C(=O)COc3ccc4[nH]cc(CCNC(=O)OC(C)(C)C)c4c3)CC2)c1` [Example 6A, 4-(m-Methoxyphenyl)-1-(tert-butoxycarbamate-tryptamine-5-carboxymethyl)piperazide hydrochloride] was tested, and the “Ratio 1A/1D” value (5-HT1D) was 6.3, the IC50 (5-HT1A) was 0.1 µM and the IC50 (5-HT1B; [1]) was 0.0015 µM. The IC50 (5-HT1C; [2]) was over 1 µM, the IC50 (5-HT2) was over 1 µM and the IC50 (α2-Adrenergic receptor) was over 1 µM. For the same molecule, the IC50 (α1-Adrenergic receptor) was over 1 µM and the IC50 (D2-Dopaminergic receptor) was over 1 µM.
`CN1CCN(C(=O)COc2ccc3[nH]cc(CCN)c3c2)CC1` [Example 7, 4-Methyl-1-(tryptamine-5-O-carboxymethyl)piperazide hydrochloride] was tested, and the “Ratio 1A/1D” value (5-HT1D) was over 1.4, the IC50 (5-HT1A) was over 1 µM and the IC50 (5-HT1B; [1]) was 0.355 µM. It also gave an IC50 (5-HT1C) of over 1 µM, an IC50 (5-HT2) of over 1 µM and an IC50 (α2-Adrenergic receptor) of over 1 µM. It also gave an IC50 (α1-Adrenergic receptor) of over 1 µM and an IC50 (D2-Dopaminergic receptor) of over 1 µM.
Molecule `CSc1ccc2c(c1)C(N1CCN(C(=O)COc3ccc4[nH]cc(CCNC(=O)OC(C)(C)C)c4c3)CC1)Cc1ccccc1S2` (stereo not shown) [Example 8, 1-[(tert-Butoxycarbamate)tryptamine-5-O-carboxymethyl]-4-[10-(8-methylthio-10-11-dihydrodibenzo[b, f]thiepine)]piperazide hydrochloride] has an IC50 (5-HT1A) of over 1 µM and an IC50 (5-HT1B; [1]) of 1 µM.
In the case of `Cc1ccccc1N1CCN(C(=O)C(Oc2ccc3[nH]cc(CCN)c3c2)c2ccccc2)CC1` (stereo not drawn) [Example 9, 4-O-Tolyl-1-[tryptamine-5-O-(α-phenylcarboxymethyl)]piperazide hydrochloride], the “Ratio 1A/1D” value (5-HT1D) is reported as 1.7, the IC50 (5-HT1A) is reported as 0.325 µM and the IC50 (5-HT1B; [1]) is reported as 0.085 µM. For the same molecule, the IC50 (5-HT1C; [2]) was 0.6 µM, the IC50 (5-HT2) was 0.55 µM and the IC50 (α2-Adrenergic receptor) was over 1 µM. It also gave an IC50 (α1-Adrenergic receptor) of over 1 µM and an IC50 (D2-Dopaminergic receptor) of over 1 µM.
For `Cc1ccccc1N1CCN(C(=O)C(C)Oc2ccc3[nH]cc(CCN)c3c2)CC1` (stereo not drawn) [Example 11, 4-o-Tolyl-1-[tryptamine-5-O-(α-methylcarboxymethyl)]piperazide hydrochloride], the “Ratio 1A/1D” value (5-HT1D) was 20.8, the IC50 (5-HT1A) was 0.125 µM and the IC50 (5-HT1B) was 0.0055 µM. For the same molecule, the IC50 (5-HT1C) was 1 µM and the IC50 (5-HT2) was over 1 µM.
`Cc1ccccc1N1CCN(C(=O)COc2ccc3[nH]cc(CCNC(=O)OC(C)(C)C)c3c2)CC1` [ID, 4-o-Tolyl-1-(tert-butoxycarbamate-tryptamine-5-O-carboxymethyl) piperazide hydrochloride] was tested, and the “Ratio 1A/1D” value (5-HT1D) was 18.5, the IC50 (5-HT1A) was 0.12 µM and the IC50 (5-HT2) was 2 µM. For the same molecule, the IC50 (α2-Adrenergic receptor) was 7 µM, the IC50 (α1-Adrenergic receptor) was 8.5 µM and the IC50 (D2-Dopaminergic receptor) was over 0.1 µM.
